Molecules are shown by their SMILES. Where only a bound is given, the exact number is not on record here.

The assay concerns the target c-KIT (Homo sapiens, UniProt P10721). Nature of the assay: c-KIT ADP-Glo biochemical assay. As for the experimental part: The inhibitory activity against c-KIT was measured using ADP-Glo assay. The percent (%) inhibition at each concentration of compound is calculated based on and relative to the luminescence signal in the Max and Min control wells contained within each assay plate. The Max control wells contain enzyme and substrate as 0% inhibition, and the Min control wells only contain substrate without enzyme as 100% inhibition. The concentrations and % inhibition values for tested compounds are plotted and the concentration of compound required for 50% inhibition (IC50) is determined with a four-parameter logistic dose response equation. The ability of the compounds in Table 1 to inhibit c-KIT was determined.
In general terms: In ADP-Glo the light output rises with the ADP produced.

Chain of c-KIT (P10721 26-976): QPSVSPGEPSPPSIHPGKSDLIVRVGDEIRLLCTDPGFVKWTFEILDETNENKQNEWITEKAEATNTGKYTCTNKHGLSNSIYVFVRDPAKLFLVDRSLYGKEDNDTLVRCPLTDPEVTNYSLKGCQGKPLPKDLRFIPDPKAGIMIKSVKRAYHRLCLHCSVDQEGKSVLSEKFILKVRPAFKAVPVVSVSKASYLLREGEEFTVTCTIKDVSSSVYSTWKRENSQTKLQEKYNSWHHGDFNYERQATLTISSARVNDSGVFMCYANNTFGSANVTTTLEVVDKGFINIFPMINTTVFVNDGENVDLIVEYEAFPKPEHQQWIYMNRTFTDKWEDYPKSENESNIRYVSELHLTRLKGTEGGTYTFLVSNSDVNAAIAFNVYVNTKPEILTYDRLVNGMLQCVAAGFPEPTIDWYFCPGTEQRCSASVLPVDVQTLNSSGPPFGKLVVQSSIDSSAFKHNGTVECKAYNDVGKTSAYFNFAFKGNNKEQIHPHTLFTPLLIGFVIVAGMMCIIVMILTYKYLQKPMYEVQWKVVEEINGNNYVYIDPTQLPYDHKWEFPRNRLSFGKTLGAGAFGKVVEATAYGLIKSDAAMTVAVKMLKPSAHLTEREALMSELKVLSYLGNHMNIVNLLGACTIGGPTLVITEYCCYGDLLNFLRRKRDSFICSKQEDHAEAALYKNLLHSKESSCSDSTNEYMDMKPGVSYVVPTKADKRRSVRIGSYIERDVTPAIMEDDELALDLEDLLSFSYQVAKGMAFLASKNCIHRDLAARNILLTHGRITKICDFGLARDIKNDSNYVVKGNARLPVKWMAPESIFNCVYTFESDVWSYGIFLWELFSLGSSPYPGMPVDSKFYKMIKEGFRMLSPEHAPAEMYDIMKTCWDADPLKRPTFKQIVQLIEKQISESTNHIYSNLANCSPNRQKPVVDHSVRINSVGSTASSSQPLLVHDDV

As for `COC(=O)N1CC(c2nc(-c3cc(F)c(C)c(NC(=O)c4cnc5ccc(C(N)=O)cn45)c3)no2)C1` [Compound C040, methyl 3-(3-(3-(6-carbamoylimidazo[1,2-a]pyridine-3-carboxamido)-5-fluoro-4-methylphenyl)-1,2,4-oxadiazol-5-yl)azetidine-1-carboxylate], for the setting “class ranges”, the IC50 was not above 100 nM.
The molecule `COCCOC(=O)N1CC(c2nc(-c3cc(F)c(C)c(NC(=O)c4cnc5ccccn45)c3)no2)C1` [Compound C042, 2-methoxyethyl 3-(3-(3-fluoro-5-(imidazo[1,2-a]pyridine-3-carboxamido)-4-methylphenyl)-1,2,4-oxadiazol-5-yl)azetidine-1-carboxylate] came in with an IC50 (class ranges) of 100 to 1000 nM.
Molecule `COC(=O)N1CC(c2nc(-c3cc(F)c(C)c(NC(=O)c4cnc5cc(OC)ccn45)c3)no2)C1` [Compound C029, methyl 3-(3-(3-fluoro-5-(7-methoxyimidazo[1,2-a]pyridine-3-carboxamido)-4-methylphenyl)-1,2,4-oxadiazol-5-yl)azetidine-1-carboxylate] had a concentration for half-maximal inhibition (IC50) (class ranges) not above 100 nM.
The molecule `Cc1c(F)cc(-c2noc([C@H]3C[C@@H]3F)n2)cc1NC(=O)c1cnc2ccccn12` (racemic) [Compound C002, N-(3-fluoro-5-(5-((1R,2S)-2-fluorocyclopropyl)-1,2,4-oxadiazol-3-yl)-2-methylphenyl)imidazo[1,2-a]pyridine-3-carboxamide] yielded an IC50 (class ranges) of 1000 to 20000 nM.
Turning to `COC(=O)N1CC(c2nc(-c3cc(F)c(C)c(NC(=O)c4cnn5ccccc45)c3)no2)C1` [Compound C006, methyl 3-(3-(3-fluoro-4-methyl-5-(pyrazolo[1,5-a]pyridine-3-carboxamido)phenyl)-1,2,4-oxadiazol-5-yl)azetidine-1-carboxylate], the IC50 (class ranges) fell in the range of 100 to 1000 nM.
Take `COC(=O)N1CC(c2nc(-c3cc(NC(=O)c4cnc5ccccn45)c(C)cc3F)no2)C1` [methyl 3-(3-(2-fluoro-5-(imidazo[1,2-a]pyridine-3-carboxamido)-4-methylphenyl)-1,2,4-oxadiazol-5-yl)azetidine-1-carboxylate, reference compound]: for the setting “comparison of prior art compounds (WO 2013/033167) with example 3 (C003)”, the half-inhibitory concentration (IC50) was determined as 4950 nM.
Molecule `Cc1c(F)cc(-c2noc(C3CC(F)(F)C3)n2)cc1NC(=O)c1cnc2cc(N3CCN(C)CC3)ccn12` [Compound C011, N-(5-(5-(3,3-difluorocyclobutyl)-1,2,4-oxadiazol-3-yl)-3-fluoro-2-methylphenyl)-7-(4-methylpiperazin-1-yl)imidazo[1,2-a]pyridine-3-carboxamide] displayed an IC50 (class ranges) of 100 to 1000 nM.
In turn, `CC(=O)N1CCN(c2ccn3c(C(=O)Nc4cc(-c5noc(C6CC(F)(F)C6)n5)cc(F)c4C)cnc3c2)CC1` [Compound C018, 7-(4-acetylpiperazin-1-yl)-N-(5-(5-(3,3-difluorocyclobutyl)-1,2,4-oxadiazol-3-yl)-3-fluoro-2-methylphenyl)imidazo[1,2-a]pyridine-3-carboxamide] returned a half-inhibitory concentration (IC50) (class ranges) of 100 to 1000 nM.
`COC(=O)N1CC(c2nc(-c3cc(F)c(C)c(NC(=O)c4cnc5cc(C)ccn45)c3)no2)C1` [Compound C017, methyl 3-(3-(3-fluoro-4-methyl-5-(7-methylimidazo[1,2-a]pyridine-3-carboxamido)phenyl)-1,2,4-oxadiazol-5-yl)azetidine-1-carboxylate]: under “class ranges”, the IC50 lay within 100 to 1000 nM.
The molecule `COC(=O)N1CC(c2nc(-c3cc(F)c(C)c(NC(=O)c4cnc5ccc(N6CCOCC6)cn45)c3)no2)C1` [Compound C009, methyl 3-(3-(3-fluoro-4-methyl-5-(6-morpholinoimidazo[1,2-a]pyridine-3-carboxamido)phenyl)-1,2,4-oxadiazol-5-yl)azetidine-1-carboxylate] registered an IC50 (class ranges) of 100 to 1000 nM.
Molecule `COC(=O)N1CC(c2nc(-c3cc(F)c(C)c(NC(=O)c4cnc5cc(Cl)ccn45)c3)no2)C1` [Compound C016, methyl 3-(3-(3-(7-chloroimidazo[1,2-a]pyridine-3-carboxamido)-5-fluoro-4-methylphenyl)-1,2,4-oxadiazol-5-yl)azetidine-1-carboxylate] showed an IC50 (class ranges) of 100 to 1000 nM.

Broadly, the IC50 is the concentration that inhibits the measured activity by half. A lower IC50 goes with higher potency.

Values taken from US20250313556A1, “CERTAIN CHEMICAL ENTITIES, COMPOSITIONS, AND METHODS” (MRJA THERAPEUTICS, INC., priority 2022, published 2025).
